As usually defined, the Tmax is the time at which the peak concentration occurs. As usually defined, the solubility is the dissolved amount per volume that the medium holds. The term AUC(0-inf) denotes the area under the concentration-time curve extrapolated to infinity. Higher therefore signals more exposure. One may read the Cmax as the maximum level reached in the sampled fluid or tissue. For orientation: half-life means how long it takes for the measured level to halve.

Structures are written as SMILES. ≈ marks a conversion by molar mass, not a printed value. Like-named read-outs stand apart in the source and are kept apart here.

The values below come from PMC10747661, “Preparation of trans-Crocetin with High Solubility, Stability, and Oral Bioavailability by Incorporation into Three Types of Cyclodextrins” (Pharmaceutics, 2023).

A short description of series [1]: Dissolution test (USP paddle method). In kind it is physicochemical. To be noted: phosphate buffer pH 6.8, 900 mL, 100 rpm, 37 °C. Here is the method: The dissolution of CRT, PMs, and ICs was evaluated using the USP (version 26) paddle method with a dissolution tester (Tianjin University Electronics Co., Ltd., Tianjin, China). The dissolution medium was phosphate buffer (pH 6.8, 900 mL); the paddles were rotated at 100 rpm at 37.0 ± 0.5 °C. A sample volume of 5 mL was withdrawn from the dissolution medium at predetermined sampling points, filtered using a […] microporous filter membrane, and analyzed via HPLC. All dissolution tests were performed in triplicate.

Details of series [2]: method as in PMID 16131146. To be noted: mice, oral, cited from earlier work.
On the set-up of series [3]: method as in PMID 21112749, PMID 21398065. As to conditions: humans, CRT or saffron tea orally, cited from earlier work.
Series [4] can be described thus: Effect of storage on stability (heat, light, moisture). It is filed as physicochemical. To be noted: 60 ± 0.5 °C, 10 days. Here is the method:
All samples were sealed in transparent glass bottles and divided into three groups, each containing CRT/α-CD IC (500 mg), CRT/HP-β-CD IC (500 mg), CRT/γ-CD IC (500 mg), and intact CRT (500 mg). The first group was stored at 60 ± 0.5 °C for 10 days. The second group was stored at 25 ± 0.5 °C with a light intensity of 4500 ± 500 lx for 10 days. The third group was stored at 25 ± 0.5 °C with 75% relative humidity for 10 days. The CRT contents were sampled and measured on days 0, 5, and 10. Each test was repeated at least three times.

The nature of another series: Solubility determination. It is filed as physicochemical. To be noted: thermodynamic from solid, 25 °C. Here is the method:
Drug solubility at 25 ± 0.5 °C was determined in water and phosphate buffer (pH 6.8). Excesses of CRT and each IC were added to each fluid and placed in a thermostatic water bath in the dark at 25 ± 0.5 °C with a constant shaking rate of 100 rpm for 72 h. After the equilibrium state was reached, the solutions were centrifuged for 15 min, and 2 mL of the supernatant was diluted with an appropriate amount of methanol. Drug concentrations were determined using HPLC.

Series [5] is described as follows: Pharmacokinetics study after intragastric administration. To be noted: Sprague-Dawley, rat, plasma, po, SD rats, 20 mg/kg intragastric, n = 6. It is filed as in vivo. Here is the method: Twenty-four SD rats were randomly divided into four groups and administered CRT/α-CD IC, CRT/HP-β-CD IC, CRT/γ-CD IC, or intact CRT. All rats were fasted for 12 h and only provided water before experiments. All samples at a dose of 20 mg/kg body weight were administered intragastrically. Blood samples (0.4 mL) were collected from the orbital venous plexus at predetermined time points (0.083, 0.167, 0.25, 0.5, 1, 2, 4, 6, 8, 12, and 24 h) into tubes containing heparin sodium. The blood samples were centrifuged immediately at 4000 rpm for 15 min; the supernatant layer of plasma was separated and stored at 4 °C for 24 h. CRT in plasma was extracted with 600 μL methanol with an internal standard of 10 μL ATRA from 200 μL plasma samples and centrifuged at 10,000 rpm for 15 min at 4 °C. The supernatant layer was transferred to a new tube, concentrated to remove solvents under the LSE-1K vacuum centrifuge concentrator (JTLIANGYOU, Changzhou, China), and redissolved in 200 μL of methanol for analysis. The concentration of CRT was determined using an HPLC (Waters HPLC system consisting of a 2695–2487 UV detector, Milford, MA, USA) using a COSMOSIL-C18 (150 mm × 4.6 mm, 5 μm) column with a detection wavelength of 424 nm. The injection volume was 20 μL, the column temperature was 35 °C, the mobile phase was methanol with water and glacial acetic acid in a ratio (v:v:v) of 92:7.7:0.3, and the flow rate was 1 mL/min. The pharmacokinetic parameters were calculated using DAS 2.0. Relative bioavailability percentage was calculated as follows:Relative bioavailability (%) = (AUC0–∞ IC/AUC0–∞ CRT) × 100 (2)

On to `CC(/C=C/C=C(\C)C(=O)O)=C\C=C\C=C(C)\C=C\C=C(/C)C(=O)O` [CRT, Crocetin], for which the “cumulative dissolution rate at 180 min” value in series [1] is given as 13%. Also, the “time of highest plasma concentration” value in series [2] (dose of 117.2 mg/mL) is listed as “approximately 2 h”. Also, in series [2], the “highest plasma concentration of CRT” value is given as 1249.3 ± 788.1 ng/mL. Further, the “concentrations of CRT in the blood” value in series [3] (based on the dose) was 100.9 to 279.7 ng/mL. Moreover, the time to peak (Tmax) result in series [3] is “approximately 4.6 h”. In series [4], the “relative content (retention) of CRT after thermal treatment” value is on record as 80%. Besides, the solubility at 72 h in the series “Solubility determination” (phosphate buffer, pH 6.86, aqueous buffer, buffer salt, read-out: Solubility of CRT in pH6.86 Buffer Salt) stood at 1.84 ± 0.11 µg/mL. In the series “Solubility determination” (water, read-out: Solubility of CRT in H2O), the solubility at 72 h was 1.23 ± 0.07 µg/mL (≈ 3.75 µM). Further, in series [5], the area under the curve AUC(0-inf) amounted to 2660 ± 196 ng·h/mL, the Cmax worked out at 545 ± 23 ng/mL, the time to peak (Tmax) came out at 2 h and the half-life was 2.06 ± 0.237 h. Also, the AUC(0-t) in series [5] (read-out: AUC0–12) stood at 2410 ± 163 ng·h/mL. Further, the MRT last in series [5] (read-out: MRT0–12) is 3.03 ± 0.082 h.
